For assay [1], the target named is T1, Histone deacetylase 1 (Homo sapiens, UniProt Q13547). As to conditions: dose 100.0 nM, time 40.0 min.
Assay [2] deals with T2, Protein deacetylase HDAC6 (Homo sapiens, UniProt Q9UBN7).
T2 sequence (Q9UBN7 whole entry): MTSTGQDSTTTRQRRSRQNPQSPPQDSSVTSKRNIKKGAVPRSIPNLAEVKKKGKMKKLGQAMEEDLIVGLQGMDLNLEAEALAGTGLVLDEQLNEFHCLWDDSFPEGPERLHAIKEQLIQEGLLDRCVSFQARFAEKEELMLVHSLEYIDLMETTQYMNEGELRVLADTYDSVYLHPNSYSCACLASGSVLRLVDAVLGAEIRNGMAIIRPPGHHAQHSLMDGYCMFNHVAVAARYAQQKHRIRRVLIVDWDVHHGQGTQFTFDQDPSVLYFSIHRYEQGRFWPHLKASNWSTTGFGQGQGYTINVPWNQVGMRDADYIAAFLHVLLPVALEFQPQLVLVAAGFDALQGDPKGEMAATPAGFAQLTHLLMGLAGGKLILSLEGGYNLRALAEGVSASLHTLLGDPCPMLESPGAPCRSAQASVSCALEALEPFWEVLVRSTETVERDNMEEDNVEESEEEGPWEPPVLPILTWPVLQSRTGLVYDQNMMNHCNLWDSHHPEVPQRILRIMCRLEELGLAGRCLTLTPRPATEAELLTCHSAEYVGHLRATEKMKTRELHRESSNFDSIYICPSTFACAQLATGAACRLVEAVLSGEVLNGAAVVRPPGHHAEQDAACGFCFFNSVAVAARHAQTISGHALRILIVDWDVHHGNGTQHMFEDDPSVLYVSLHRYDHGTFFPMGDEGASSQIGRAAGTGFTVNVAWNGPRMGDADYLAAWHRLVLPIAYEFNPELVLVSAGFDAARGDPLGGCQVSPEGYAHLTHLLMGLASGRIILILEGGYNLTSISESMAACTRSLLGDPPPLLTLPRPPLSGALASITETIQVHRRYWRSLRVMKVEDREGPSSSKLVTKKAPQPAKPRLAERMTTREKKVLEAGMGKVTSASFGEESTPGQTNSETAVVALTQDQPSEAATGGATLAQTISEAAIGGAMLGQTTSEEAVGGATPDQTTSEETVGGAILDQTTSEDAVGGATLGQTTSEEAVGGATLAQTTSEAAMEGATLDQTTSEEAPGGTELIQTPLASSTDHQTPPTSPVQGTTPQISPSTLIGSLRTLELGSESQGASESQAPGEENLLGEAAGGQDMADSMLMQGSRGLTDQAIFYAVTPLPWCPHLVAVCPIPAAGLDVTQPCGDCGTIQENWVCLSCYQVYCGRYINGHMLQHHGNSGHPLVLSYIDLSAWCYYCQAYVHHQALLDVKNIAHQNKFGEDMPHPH
In words: Inhibition of recombinant full length human HDAC6 expressed in baculovirus infected Sf9 cells using Z-(Ac)-Lys-AMC as substrate incubated for 40 mins by fluorescence based assay.

The target in assay [3] is T3, Protein deacetylase HDAC6 (Homo sapiens) (UniProt Q9UBN7).
T3 sequence (whole entry): T2 sequence (Q9UBN7 whole entry)
As to conditions: Sf9, dose 100.0 nM, time 40.0 min.

In assay [4] the target is T1, Histone deacetylase 1. The assay can be described thus: Inhibition of recombinant human HDAC1 using Z-(Ac)-Lys-AMC as substrate incubated for 40 mins by fluorescence based assay.
Another assay deals with MGC-803. In words: Antiproliferative activity against human MGC803 cells incubated for 72 hrs by MTT assay. The following applies: MGC-803, 72 h. The assay is classed as functional, cell-based. (Tetrazolium assays rely on reduction of a dye to a coloured formazan, in cell work by metabolically active cells.)

T1 sequence (Q13547 whole entry): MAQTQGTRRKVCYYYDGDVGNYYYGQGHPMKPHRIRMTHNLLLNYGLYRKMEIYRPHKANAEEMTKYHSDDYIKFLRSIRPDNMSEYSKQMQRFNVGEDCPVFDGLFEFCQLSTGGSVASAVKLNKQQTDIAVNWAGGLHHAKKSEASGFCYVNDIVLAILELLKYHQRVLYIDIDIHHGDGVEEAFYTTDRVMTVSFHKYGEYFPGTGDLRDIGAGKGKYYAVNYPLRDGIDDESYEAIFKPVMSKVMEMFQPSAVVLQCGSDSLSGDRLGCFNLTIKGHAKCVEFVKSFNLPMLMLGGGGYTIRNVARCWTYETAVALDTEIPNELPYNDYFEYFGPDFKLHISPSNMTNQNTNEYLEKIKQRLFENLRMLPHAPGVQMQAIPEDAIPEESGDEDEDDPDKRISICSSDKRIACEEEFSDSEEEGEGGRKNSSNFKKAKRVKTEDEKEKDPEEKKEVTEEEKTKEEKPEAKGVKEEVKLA

In the case of `O=C(NO)c1ccc(NCc2nc(-c3sccc3Br)nn2-c2ccccc2)cc1`, the inhibition at Histone deacetylase 1 [1] came out at 23.7%; in assay [3], 71.1%. Also, the values for the IC50 (in assay [2]; at Histone deacetylase 1 [4]; with MGC-803) were 0.0549 µM, 2.08 µM and 6.32 µM, respectively.
The matching figures for `Cc1ccc(-c2nc(CNc3ccc(C(=O)NO)cc3)n(-c3ccccc3)n2)cc1`: 20.3%, 62.2%, 0.224 µM, 3.1 µM and > 20 µM.
With `O=C(NO)c1ccc(NCc2nc(-c3ccccc3)nn2-c2ccc(F)cc2)cc1`, the values for the inhibition (against Histone deacetylase 1 [1]; in assay [3]) were 16.3% and 67.6%, respectively. Further, the IC50 in assay [2] worked out at 0.274 µM; on Histone deacetylase 1 [4] it was 1.82 µM; in the assay with MGC-803, 10.5 µM.
The matching figures for `O=C(NO)c1ccc(NCc2nc(-c3ccccc3)nn2-c2ccccc2Cl)cc1`: 17%, 64.6%, 0.669 µM, 3.12 µM and 9.63 µM.
The matching figures for `O=C(NO)c1ccc(NCc2nc(-c3ccccc3)nn2-c2cccc(Cl)c2)cc1`: 14.7%, 62.3%, 0.678 µM, 4.4 µM and 13.7 µM.
The matching figures for `Cc1cccc(-n2nc(-c3ccccc3)nc2CNc2ccc(C(=O)NO)cc2)c1`: 18.4%, 66%, 0.388 µM, 3.85 µM and 13.2 µM.

Usually inhibition stands for the relative decrease from the control value, in per cent. Read a low inhibition as a weak effect. As a reminder, the IC50 is the point on the concentration scale where inhibition reaches its midpoint.

These data come from ChEMBL document CHEMBL4811252, “Identification of novel 1,3-diaryl-1,2,4-triazole-capped histone deacetylase 6 inhibitors with potential anti-gastric cancer activity” (Eur J Med Chem, 2021).
